# Experimental data: patent publication US4273765A, “Amino sugar derivatives containing trehalose” (Hoffmann-La Roche Inc., priority 1978, dated 1981)
# Assays:
# [1] = system: hyperglycemia (hyperinsulinemia) following an oral load of native starch; test: Hyperglycemia (hyperinsulinemia) following an oral load of native starch; format: in vivo; details: 20 min. after wheat starch
# Method: (§4) [Plasma Glucose and insulin 20 min. after carbohydrate ± Trestatin (1.
# g wheat starch/kg or 3.2 g sucrose/kg)]
# [2] = system: Klebsiella pneumoniae PCI602; test: Antimicrobial spectrum, agar-dilution method; format: cell-based
# [3] = system: Mycobacterium smegmatis ATCC607; test: Antimicrobial spectrum, agar-dilution method; format: cell-based
# [4] = system: E. coli K-12 ML1630; test: Antimicrobial spectrum, agar-dilution method; format: cell-based; details: E. coli K-12 ML1630, agar-dilution
# [5] = system: Pseudomonas aeruginosa P2; test: Antimicrobial spectrum, agar-dilution method; format: cell-based
# [6] = system: Staphylococcus aureus MS9261; test: Antimicrobial spectrum, agar-dilution method; format: cell-based
# [7] = system: E. coli NIHJ STf; test: Antimicrobial spectrum, agar-dilution method; format: cell-based
# [8] = system: Shigella flexneri; test: Antimicrobial spectrum, agar-dilution method; format: cell-based
# [9] = system: Bordetella bronchiseptica Aichi 202; test: Antimicrobial spectrum, agar-dilution method; format: cell-based; details: Bordetella bronchiseptica Aichi 202, agar-dilution
# [10] = system: Candida albicans Yu1200; test: Antimicrobial spectrum, agar-dilution method; format: cell-based
# [11] = system: Staphylococcus aureus MS3937; test: Antimicrobial spectrum, agar-dilution method; format: cell-based
# [12] = system: hyperglycemia induced by cooked rice starch; test: Inhibition of hyperglycemia induced by cooked rice starch, mice; format: in vivo; details: p.o., dose causing after 20 minutes a 20 percent decrease of hyperglycemia, 2 g/kg cooked rice starch
# Method: (§1) **ED20 is defined as the dose causing after 20 minutes a 20 percent
# (§2) decrease of hyperglycemia induced by oral administration of 2 g/kg body
# (§3) weight cooked rice starch.
# [13] = system: Serratia marcescens IFO12648; test: Antimicrobial spectrum, agar-dilution method; format: cell-based
# [14] = system: Staphylococcus aureus Smith; test: Antimicrobial spectrum, agar-dilution method; format: cell-based
# [15] = system: Salmonella typhimurium IFO12529; test: Antimicrobial spectrum, agar-dilution method; format: cell-based
# [16] = system: Proteus vulgaris OX19 ATCC6898; test: Antimicrobial spectrum, agar-dilution method; format: cell-based
# [17] = system: hyperglycemia following an oral load of sucrose; test: Hyperglycemia following an oral load of sucrose; format: in vivo; details: dose/kg 30.0 mg; 20 min. after 3.2 g sucrose/kg
# Method: as §4
# g wheat starch/kg or 3.2 g sucrose/kg)]
# [18] = system: Citrobacter; test: Antimicrobial spectrum, agar-dilution method; format: cell-based
# [19] = system: Staphylococcus aureus FDA209P; test: Antimicrobial spectrum, agar-dilution method; format: cell-based
# [20] = Titration (in water); format: physicochemical
# [21] = system: Salmonella paratyphi B; details: agar-dilution
# [22] = system: E. coli CF17; test: Antimicrobial spectrum, agar-dilution method; format: cell-based
# [23] = system: E. coli NIHJ; test: Antimicrobial spectrum, agar-dilution method; format: cell-based
# [24] = Solubility in solvents; format: physicochemical
# From the text: (h) Solubility in solvents:
# [25] = system: Pseudomonas aeruginosa IFO12689; test: Antimicrobial spectrum, agar-dilution method; format: cell-based
# [26] = system: hyperglycemia induced by cooked rice starch; test: Inhibition of hyperglycemia induced by cooked rice starch, rats; format: in vivo; details: p.o., dose causing after 20 minutes a 20 percent decrease of hyperglycemia, 2 g/kg cooked rice starch
# Method: as §1, §2, §3
# [27] = system: E. coli NIHJ SMf; test: Antimicrobial spectrum, agar-dilution method; format: cell-based
# [28] = system: rats; test: Acute toxicity, oral, rats; details: 500 mg/kg administered to rats orally (65-700 times the effective dosage)
# [29] = system: Proteus rettgeri; test: Antimicrobial spectrum, agar-dilution method; format: cell-based
# [30] = system: Pseudomonas aeruginosa A3; test: Antimicrobial spectrum, agar-dilution method; format: cell-based
# [31] = system: Bacillus subtilis PCI 219; test: Antimicrobial spectrum, agar-dilution method; format: cell-based; details: Bacillus subtilis PCI 219, agar-dilution
# [32] = biological target: T1, porcine pancreatic α-amylase (Sus scrofa, UniProt P00690); test: Porcine pancreatic α-amylase inhibitory activity (Bernfeld assay); format: biochemical; details: IU = amount giving 50% inhibition of 2 units porcine pancreatic α-amylase, pH 6.9, 37° C.
# T1 sequence (P00690 16-511): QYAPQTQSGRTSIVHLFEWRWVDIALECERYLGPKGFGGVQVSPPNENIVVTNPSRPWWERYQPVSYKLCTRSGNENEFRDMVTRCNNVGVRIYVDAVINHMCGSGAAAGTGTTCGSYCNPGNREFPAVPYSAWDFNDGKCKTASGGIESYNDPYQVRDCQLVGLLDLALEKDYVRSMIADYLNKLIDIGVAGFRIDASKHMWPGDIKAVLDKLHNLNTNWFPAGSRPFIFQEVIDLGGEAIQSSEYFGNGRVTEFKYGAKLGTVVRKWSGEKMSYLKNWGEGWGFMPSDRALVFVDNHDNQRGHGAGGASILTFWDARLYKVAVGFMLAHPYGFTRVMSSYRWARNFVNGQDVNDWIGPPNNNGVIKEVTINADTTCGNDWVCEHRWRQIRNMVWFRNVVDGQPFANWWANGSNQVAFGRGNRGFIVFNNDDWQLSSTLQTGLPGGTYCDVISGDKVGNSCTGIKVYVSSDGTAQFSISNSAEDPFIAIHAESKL
# Method: 2 units* of porcine pancreatic α-amylase in 0.1 ml of 6.4 mM ammonium sulfate solution are added to 0.6 ml of 20 mM phosphate buffer (pH 6.9) containing 10 mM sodium chloride and different amounts of Trestatin. The mixture, after equilibration at 37° C. for 5 min. followed by the addition of 0.5 ml of 4% soluble starch solution, is incubated for 5 min. at 37° C. The reaction is terminated by the addition of 2 ml of dinitrosalicylic acid reagent prepared according to the method of P. Bernfeld. The mixture is heated on a boiling water bath for 5 min. and then diluted with 10 ml of water. Absorbance (A1) of the resulting colored solution is measured at 540 nm, and the inhibition of α-amylase activity can be calculated from the following equation: [formula] A0; absorbance without enzyme A2; absorbance without Trestatin
# *1 unit of the α-amylase is the amount of enzyme which catalyzes under the above conditions without Trestatin the formation of reducing sugars equivalent to 1 μmol of maltose.
# Each of said inhibitory activities was determined by the method mentioned above.
# [33] = system: Sarcina lutea ATCC 9341; test: Antimicrobial spectrum, agar-dilution method; format: cell-based; details: Sarcina lutea ATCC 9341, agar-dilution
# [34] = system: E. coli CF41; test: Antimicrobial spectrum, agar-dilution method; format: cell-based
structure (smiles),measurement,setting,value
C[C@H]1O[C@H](O[C@H]2[C@H](O)[C@@H](O)[C@@H](O[C@H]3[C@H](O)[C@@H](O)[C@@H](O[C@H]4[C@H](O)[C@@H](O)[C@@H](O[C@H]5O[C@H](CO)[C@@H](O)[C@H](O)[C@H]5O)O[C@@H]4CO)O[C@@H]3CO)O[C@@H]2CO)[C@H](O)[C@@H](O)[C@@H]1N[C@H]1C=C(CO)[C@@H](O[C@H]2O[C@H](CO)[C@@H](O[C@H]3O[C@H](C)[C@@H](NC4C=C(CO)[C@@H](O[C@H]5O[C@H](CO)[C@@H](O[C@H]6O[C@H](C)[C@@H](NC7C=C(CO)[C@@H](O)[C@H](O)[C@H]7O)[C@H](O)[C@H]6O)[C@H](O)[C@H]5O)[C@H](O)[C@H]4O)[C@H](O)[C@H]3O)[C@H](O)[C@H]2O)[C@H](O)[C@H]1O (some centres unmarked) [Trestatin C],"Plasma glucose, starch - load",[1]; dose/kg 0.3 mg,71% of carbohydrate primed controls
same,"Plasma insulin, starch - load",[1]; dose/kg 0.3 mg,51% of carbohydrate primed controls
same,"Plasma glucose, starch - load",[1]; dose/kg 1.0 mg,60% of carbohydrate primed controls
same,"Plasma insulin, starch - load",[1]; dose/kg 1.0 mg,51% of carbohydrate primed controls
same,"Plasma glucose, starch - load",[1]; dose/kg 3.0 mg,58% of carbohydrate primed controls
same,"Plasma insulin, starch - load",[1]; dose/kg 3.0 mg,63% of carbohydrate primed controls
same,Antimicrobial spectrum,[2],> 100 µg/mL
same,Antimicrobial spectrum,[3],> 100 µg/mL
same,Antimicrobial spectrum,[4],> 100 µg/mL
same,Antimicrobial spectrum,[5],> 100 µg/mL
same,Antimicrobial spectrum,[6],> 100 µg/mL
same,Antimicrobial spectrum,[7],> 100 µg/mL
same,Antimicrobial spectrum,[8],> 100 µg/mL
same,Antimicrobial spectrum,[9],> 100 µg/mL
same,Antimicrobial spectrum,[10],> 100 µg/mL
same,Antimicrobial spectrum,[11],> 100 µg/mL
same,"ED20, inhibition of hyperglycemia induced by cooked rice starch",[12],0.7 mg/kg
same,Antimicrobial spectrum,[13],> 100 µg/mL
same,Antimicrobial spectrum,[14],> 100 µg/mL
same,Antimicrobial spectrum,[15],> 100 µg/mL
same,Antimicrobial spectrum,[16],> 100 µg/mL
same,"Plasma glucose, sucrose - load",[17],85% of carbohydrate primed controls
same,Antimicrobial spectrum,[18],> 100 µg/mL
same,Antimicrobial spectrum,[19],> 100 µg/mL
same,pKa',[20],5.0
same,Antimicrobial spectrum,[21],> 100 µg/mL
same,Antimicrobial spectrum,[22],> 100 µg/mL
same,Antimicrobial spectrum,[23],> 100 µg/mL
same,Solubility in acetone,[24]; acetone,slightly soluble
same,Solubility in chloroform,[24]; chloroform,insoluble
same,Solubility in dimethylsulfoxide,[24]; dimethylsulfoxide,soluble
same,Solubility in ethanol,[24]; ethanol,slightly soluble
same,Solubility in ethyl acetate,[24]; ethyl acetate,insoluble
same,Solubility in water,[24]; water,easily soluble
same,Antimicrobial spectrum,[25],> 100 µg/mL
same,"ED20, inhibition of hyperglycemia induced by cooked rice starch",[26],3.0 mg/kg
same,Antimicrobial spectrum,[27],> 100 µg/mL
same,Acute toxicity,[28],not observed
same,Antimicrobial spectrum,[29],> 100 µg/mL
same,Antimicrobial spectrum,[30],> 100 µg/mL
same,Antimicrobial spectrum,[31],> 100 µg/mL
same,Inhibitory activities,[32],4.9 × 10^7 IU/g
same,Antimicrobial spectrum,[33],> 100 µg/mL
same,Antimicrobial spectrum,[34],> 100 µg/mL
